Measured values taken from patent US20050222402A1, “Dna encoding rat bombesin receptor subtype-3 (brs-3) and uses thereof” (priority 2001, published 2005).
Non-standard residues stand in square brackets, D forms with d. Residues, ends and D or L forms follow the SMILES beside them. Nle = CCCC[C@H](N)C(=O)O; βAla = NCCC(=O)O

What was measured:
human BRS-3 [1] = target: T1, human BRS-3 (Homo sapiens, UniProt P32247); assay: Calcium mobilization assay (FLIPR), transfected 293EBNA cells; assay type: cell-based
T1 construct: expressed in transfected cells; host or cells: 293EBNA cells, pE3 expression vector
T1 sequence (P32247 1-399): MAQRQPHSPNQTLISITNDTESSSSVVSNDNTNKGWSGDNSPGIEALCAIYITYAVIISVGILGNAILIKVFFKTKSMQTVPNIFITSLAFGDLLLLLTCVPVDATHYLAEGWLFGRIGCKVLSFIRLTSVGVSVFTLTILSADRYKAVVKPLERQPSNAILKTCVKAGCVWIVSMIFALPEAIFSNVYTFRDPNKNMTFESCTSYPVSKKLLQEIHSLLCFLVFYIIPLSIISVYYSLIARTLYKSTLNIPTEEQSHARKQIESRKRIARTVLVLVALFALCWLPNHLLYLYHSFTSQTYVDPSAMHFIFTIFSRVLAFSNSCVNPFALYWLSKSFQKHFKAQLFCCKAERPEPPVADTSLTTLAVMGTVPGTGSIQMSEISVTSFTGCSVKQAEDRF
Method: The functional activity of rat BRS-3 was also studied by measuring the agonist-induced calcium mobilization response using a Fluorescence Imaging Plate Reader (Molecular Devices, Sunnyvale, Calif.). Transfected 293EBNA cells were plated onto poly-D-lysine coated 96-well plates with black wall and clear bottom (Becton Dickinson, Franklin Lakes, N.J.). After 16-48 hr culture, the cells were loaded with 4 uM Fluo-3-AM fluorescent calcium-indicator dye (Molecular Probes, Eugene, OR) in assay buffer (Hank's balanced salts solution, 10 mM HEPES, pH7.4, 0.1% bovine serum albumin, 2.5 mM probenecid).
The changes in intracellular calcium concentration, as indicated by Fluo-3 fluorescence, were immediately measured by FLIPR. Maximal changes in fluorescence over base line were used to determine agonist response.
The EC50 values were mean±S.E. calculated from dose-response curves of 3-5 repeated experiments using FLIPR assays.

human BRS-3 [2] = target: T1, human BRS-3; assay: Radioligand binding assay with 125I-dYB
Method: (§1) Peptide dYB (dY-Q-W-A-V-(beta-A)-H-F-Nle-amide) (SEQ ID NO:10) was made by Research Genetics (Huntsville, Ala.) and custom labeled by NEN Life Science (NEN, Boston, Mass.) with a ^125I on the dY phenyl ring. The specific activity of ^125I-dYB is 2200 ci/mmol. The 293EBNA cells expressing wild type or mutant BRS-3 grown in 150-mm^2 dishes were harvested in binding buffer (50 mM HEPES, pH 7.4, 5 mM MgCl2, 0.1% BSA) and disrupted with Dounce homogenization.
(§2) After removal of cell nuclei by a low speed centrifugation (1000×g) step, the cell membrane proteins were collected by centrifugation at 35,000×g for 20 minutes. The membrane protein concentration was determined by the Bradford method using BSA as standard.
(§3) For binding assays, ˜20 ug membrane proteins were incubated with 0.25 nM ^125I-dYB and various concentrations of competitors in 200 ul binding buffer. After a 2 hr incubation at room temperature, the binding reaction was terminated by filtering through a GF/c filter-mate and washing the filter with binding buffer using Packard 96-well Topcount Harvester. The amount of radioligand bound to the receptor was determined by measurement of the radioactivity on the filter through liquid scintillation counting. The non-specific binding was defined as the binding in the presence of 1 uM unlabeled dYB.

rat BRS-3 = target: T2, rat BRS-3 (Rattus norvegicus, UniProt Q8K418); assay: Radioligand binding assay with 125I-dYB
T2 construct: utilized to PCR amplify full-length rat BRS-3 cDNA; expressed in transfected cells; host or cells: 293EBNA cells, pE3 expression vector
T2 sequence (Q8K418 1-399): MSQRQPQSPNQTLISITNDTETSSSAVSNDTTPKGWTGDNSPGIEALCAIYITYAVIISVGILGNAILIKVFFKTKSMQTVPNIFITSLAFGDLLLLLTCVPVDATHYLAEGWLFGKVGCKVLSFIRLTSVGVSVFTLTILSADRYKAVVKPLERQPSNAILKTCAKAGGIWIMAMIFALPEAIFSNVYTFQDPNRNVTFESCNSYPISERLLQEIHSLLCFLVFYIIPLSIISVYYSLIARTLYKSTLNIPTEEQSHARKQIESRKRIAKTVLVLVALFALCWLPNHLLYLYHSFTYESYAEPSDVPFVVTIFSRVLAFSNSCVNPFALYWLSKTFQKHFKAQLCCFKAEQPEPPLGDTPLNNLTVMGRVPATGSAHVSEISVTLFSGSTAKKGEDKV
Method: as §1, §2, §3

SMILES | EC50 (human BRS-3 [1]) | Ki (human BRS-3 [2]) | specific binding to rat BRS-3 (rat BRS-3)
CCCC[C@H](NC(=O)[C@H](Cc1ccccc1)NC(=O)[C@H](Cc1cnc[nH]1)NC(=O)CCNC(=O)[C@@H](NC(=O)[C@H](C)NC(=O)[C@H](Cc1c[nH]c2ccccc12)NC(=O)[C@H](CCC(N)=O)NC(=O)[C@H](N)Cc1ccc(O)cc1)C(C)C)C(N)=O [dYB, [D-Tyr6-betaAla11-Phe13-Nle14] bombesin (6-14)] (H-[dY]QWAV[βAla]HF[Nle]-NH2) | 1.2 ± 0.4 nM | 1.8 ± 0.6 nM | –
CCCC[C@H](NC(=O)[C@H](Cc1ccccc1)NC(=O)[C@H](Cc1c[nH]cn1)NC(=O)CCNC(=O)[C@@H](NC(=O)[C@H](C)NC(=O)[C@H](Cc1c[nH]c2ccccc12)NC(=O)[C@H](CCC(N)=O)NC(=O)[C@H](N)Cc1ccc(O)cc1)C(C)C)C(N)=O [dYB, [D-Tyr6-betaAla11-Phe13-Nle14] bombesin (6-14)] (H-[dY]QWAV[βAla]HF[Nle]-NH2) | – | – | undetectable
